In patent US20230391760A1, “HETEROCYCLIC GLP-1 AGONISTS” (Gasherbrum Bio, Inc., priority 2020, published 2023):

Target: GLP-1 Receptor (Homo sapiens, UniProt P43220)
Assay: GLP-1R agonist cAMP stimulation assay (HEK293/GLP1R/CRE-LUC cells, cAMP dynamic 2 Kit)
Type: cell-based
Details: HEK293/CRE-Luc cell line stably expressing the GLP-1 Receptor, 30 min at 37° C.
In short: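 cAMP measured by HTRF competition (d2-labelled cAMP with cryptate antibody, 1 h, room temperature, protected from light). Before that, GLP1R/CRE-Luc HEK293 cells (1000/well) were exposed for 30 min at 37 °C to half-log compound dilutions in DPBS containing IBMX 0.5 mM and BSA 0.1%.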

Chain of GLP-1 Receptor (P43220 24-463, species assumed): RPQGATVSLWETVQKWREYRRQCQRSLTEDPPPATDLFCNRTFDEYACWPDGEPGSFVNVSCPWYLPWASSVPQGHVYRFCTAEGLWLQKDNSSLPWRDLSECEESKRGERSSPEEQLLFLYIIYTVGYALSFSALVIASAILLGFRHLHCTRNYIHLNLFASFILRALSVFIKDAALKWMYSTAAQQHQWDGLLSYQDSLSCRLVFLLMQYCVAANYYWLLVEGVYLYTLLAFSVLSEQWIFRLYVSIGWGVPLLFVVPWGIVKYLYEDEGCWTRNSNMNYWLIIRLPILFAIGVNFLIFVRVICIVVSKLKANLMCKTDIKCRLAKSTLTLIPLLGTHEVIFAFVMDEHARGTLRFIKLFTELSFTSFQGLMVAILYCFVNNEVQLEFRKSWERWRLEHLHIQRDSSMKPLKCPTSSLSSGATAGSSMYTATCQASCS

EC50	Structure (SMILES)
1200 pM	O=C(Nc1ccc2c(c1)nc(CN1CCC(c3cccc(OCc4ccc(Cl)cc4F)n3)CC1)n2C[C@@H]1CCO1)c1ccc(F)cn1 [Compound 190a, N-{2-[(4-{6-[(4-chloro-2-fluorophenyl)methoxy]pyridin-2-yl}piperidin-1-yl)methyl]-1-{[(2S)-oxetan-2-yl]methyl}-1H-1,3-benzodiazol-5-yl}-5-fluoropyridine-2-carboxamide]
40 pM	C[C@]1(c2ccc(Cl)cc2F)Oc2cccc(C3CCN(Cc4nc5cc(-c6nnc[nH]6)ncc5n4C[C@@H]4CCO4)CC3)c2O1 [Compound 440a, 4-[(2S)-2-(4-chloro-2-fluorophenyl)-2-methyl-2H-1,3-benzodioxol-4-yl]-1-[(3-{[(2S)-oxetan-2-yl]methyl}-6-(4H-1,2,4-triazol-3-yl)-3H-imidazo[4,5-c]pyridin-2-yl)methyl]piperidine]
37 pM	O=c1[nH]c(-c2cc3nc(CN4CCC(c5cccc(OCc6ccc(Cl)cc6F)n5)CC4)n(C[C@@H]4CCO4)c3cn2)no1 [Compound 316a, 3-{2-[(4-{6-[(4-chloro-2-fluorophenyl)methoxy]pyridin-2-yl}piperidin-1-yl)methyl]-3-{[(2S)-oxetan-2-yl]methyl}-3H-imidazo[4,5-c]pyridin-6-yl}-4,5-dihydro-1,2,4-oxadiazol-5-one]
220 pM	Fc1cc(Cl)ccc1COc1cc(C2CCN(Cc3nc4cc(-c5nnc(C(F)(F)F)[nH]5)ncc4n3C[C@@H]3CCO3)CC2)ccc1F [Compound 470a, 4-{3-[(4-chloro-2-fluorophenyl)methoxy]-4-fluorophenyl}-1-[(3-{[(2S)-oxetan-2-yl]methyl}-6-[5-(trifluoromethyl)-4H-1,2,4-triazol-3-yl]-3H-imidazo[4,5-c]pyridin-2-yl)methyl]piperidine]
5.1 pM	Cc1nnc(-c2cc3nc(CN4CCC(c5cccc6c5O[C@@](C)(c5ccc(Cl)cc5F)O6)CC4)n(C[C@@H]4CCO4)c3cn2)[nH]1 [Compound 289a, 4-[(2S)-2-(4-chloro-2-fluorophenyl)-2-methyl-2H-1,3-benzodioxol-4-yl]-1-{[6-(5-methyl-4H-1,2,4-triazol-3-yl)-3-{[(2S)-oxetan-2-yl]methyl}-3H-imidazo[4,5-c]pyridin-2-yl]methyl}piperidine]
210 pM	C[C@]1(c2ccc(Cl)cn2)Oc2cccc(C3CCN(Cc4nc5cc(-c6nnn[nH]6)cnc5n4C[C@@H]4CCO4)CC3)c2O1 [Compound 451a, 5-chloro-2-[(2S)-2-methyl-4-{1-[(3-{[(2S)-oxetan-2-yl]methyl}-6-(1H-1,2,3,4-tetrazol-5-yl)-3H-imidazo[4,5-b]pyridin-2-yl)methyl]piperidin-4-yl}-2H-1,3-benzodioxol-2-yl]pyridine]
3200 pM	O=C(Nc1ccc2c(c1)nc(CN1CCC(c3cccc(OCc4ccc(Cl)cc4F)n3)CC1)n2C[C@@H]1CCO1)C1CCCNC1 (stereo partly drawn) [Compound 203a, N-{2-[(4-{6-[(4-chloro-2-fluorophenyl)methoxy]pyridin-2-yl}piperidin-1-yl)methyl]-1-{[(2S)-oxetan-2-yl]methyl}-1H-1,3-benzodiazol-5-yl}piperidine-3-carboxamide]
38 pM	Fc1cc(Cl)ccc1COc1ccc(F)c(N2CCN(Cc3nc4cc(-c5nnc(C(F)(F)F)[nH]5)ncc4n3C[C@@H]3CCO3)CC2)n1 [Compound 501a, 1-{6-[(4-chloro-2-fluorophenyl)methoxy]-3-fluoropyridin-2-yl}-4-[(3-{[(2S)-oxetan-2-yl]methyl}-6-[5-(trifluoromethyl)-4H-1,2,4-triazol-3-yl]-3H-imidazo[4,5-c]pyridin-2-yl)methyl]piperazine]
46 pM	CC1(c2ccc(Cl)cc2F)Oc2cccc(C3CCN(Cc4nc5cc(-c6nnc(C(F)(F)F)[nH]6)ccc5n4C[C@@H]4CCO4)CC3)c2O1 (mixture of isomers) [Compound 229a, 2-({4-[2-(4-chloro-2-fluorophenyl)-2-methyl-2H-1,3-benzodioxol-4-yl]piperidin-1-yl}methyl)-1-{[(2S)-oxetan-2-yl]methyl}-5-[5-(trifluoromethyl)-4H-1,2,4-triazol-3-yl]-1H-1,3-benzodiazole]
500 pM	O=c1[nH]c(-c2cc3nc(CN4CC=C(c5cccc(OCc6ccc(Cl)cc6F)c5)CC4)n(C[C@@H]4CCO4)c3cn2)no1 [Compound 308a, 3-{2-[(4-{3-[(4-chloro-2-fluorophenyl)methoxy]phenyl}-1,2,3,6-tetrahydropyridin-1-yl)methyl]-3-{[(2S)-oxetan-2-yl]methyl}-3H-imidazo[4,5-c]pyridin-6-yl}-4,5-dihydro-1,2,4-oxadiazol-5-one]
99 pM	Fc1cc(C2CC2)ccc1COc1cccc(C2CCN(Cc3nc4cc(-c5nnc(C(F)(F)F)[nH]5)ncc4n3C[C@@H]3CCO3)CC2)n1 [Compound 498a, 2-[(4-cyclopropyl-2-fluorophenyl)methoxy]-6-{1-[(3-{[(2S)-oxetan-2-yl]methyl}-6-[5-(trifluoromethyl)-4H-1,2,4-triazol-3-yl]-3H-imidazo[4,5-c]pyridin-2-yl)methyl]piperidin-4-yl}pyridine]
12 pM	N#Cc1ccc(COc2cccc(C3CCN(Cc4nc5cc(-c6nnc(C(F)(F)F)[nH]6)cnc5n4C[C@@H]4CCO4)CC3)n2)c(F)c1 [Compound 325a, 3-fluoro-4-{[(6-{1-[(3-{[(2S)-oxetan-2-yl]methyl}-6-[5-(trifluoromethyl)-4H-1,2,4-triazol-3-yl]-3H-imidazo[4,5-b]pyridin-2-yl)methyl]piperidin-4-yl}pyridin-2-yl)oxy]methyl}benzonitrile]
43 pM	Cc1ncccc1C(=O)Nc1ccc2c(c1)nc(CN1CCC(c3cccc(OCc4ccc(Cl)cc4F)n3)CC1)n2C[C@@H]1CCO1 [Compound 188a, N-{2-[(4-{6-[(4-chloro-2-fluorophenyl)methoxy]pyridin-2-yl}piperidin-1-yl)methyl]-1-{[(2S)-oxetan-2-yl]methyl}-1H-1,3-benzodiazol-5-yl}-2-methylpyridine-3-carboxamide]
16 pM	C[C@]1(c2ccc(Cl)cn2)Oc2cccc(C3CCN(Cc4nc5cc(-c6nnn[nH]6)ncc5n4C[C@@H]4CCO4)CC3)c2O1 [Compound 449a, 5-chloro-2-[(2S)-2-methyl-4-{1-[(3-{[(2S)-oxetan-2-yl]methyl}-6-(1H-1,2,3,4-tetrazol-5-yl)-3H-imidazo[4,5-c]pyridin-2-yl)methyl]piperidin-4-yl}-2H-1,3-benzodioxol-2-yl]pyridine]
8.4 pM	N#Cc1ccc(COc2cccc(N3CCN(Cc4nc5cc(-c6nnc(C(F)(F)F)[nH]6)cnc5n4C[C@@H]4CCO4)CC3)n2)c(F)c1 [Compound 495a, 3-fluoro-4-{[(6-{4-[(3-{[(2S)-oxetan-2-yl]methyl}-6-[5-(trifluoromethyl)-4H-1,2,4-triazol-3-yl]-3H-imidazo[4,5-b]pyridin-2-yl)methyl]piperazin-1-yl}pyridin-2-yl)oxy]methyl}benzonitrile]
29 pM	Cc1nnc(-c2ccc3c(c2)nc(CN2CCC(c4cccc5c4O[C@@](C)(c4ccc(C#N)cc4F)O5)CC2)n3C[C@@H]2CCO2)[nH]1 [Compound 410a, 3-fluoro-4-[(2S)-2-methyl-4-(1-{[5-(5-methyl-4H-1,2,4-triazol-3-yl)-1-{[(2S)-oxetan-2-yl]methyl}-1H-1,3-benzodiazol-2-yl]methyl}piperidin-4-yl)-2H-1,3-benzodioxol-2-yl]benzonitrile]
6.4 pM	C[C@]1(c2ccc(C#N)cc2F)Oc2cccc(C3CCN(Cc4nc5cc(-c6n[nH]c(C(F)(F)F)n6)ncc5n4C[C@@H]4CCO4)CC3)c2O1 [Compound 342a, 3-fluoro-4-[(2S)-2-methyl-4-{1-[(3-{[(2S)-oxetan-2-yl]methyl}-6-[5-(trifluoromethyl)-4H-1,2,4-triazol-3-yl]-3H-imidazo[4,5-c]pyridin-2-yl)methyl]piperidin-4-yl}-2H-1,3-benzodioxol-2-yl]benzonitrile]
98 pM	CC1(c2ccc(Cl)cn2)Oc2cccc(C3CCN(Cc4nc5cc(-c6nnc(C(F)(F)F)[nH]6)ccc5n4C[C@@H]4CCO4)CC3)c2O1 (stereo partly drawn) [Compound 257a, 2-({4-[2-(5-chloropyridin-2-yl)-2-methyl-2H-1,3-benzodioxol-4-yl]piperidin-1-yl}methyl)-1-{[(2S)-oxetan-2-yl]methyl}-5-[5-(trifluoromethyl)-4H-1,2,4-triazol-3-yl]-1H-1,3-benzodiazole]
270 pM	CC1(c2ccc(Cl)cc2F)Oc2cccc(C3CCN(Cc4nc5cc(-c6nnc(C(F)F)[nH]6)c(F)cc5n4C[C@@H]4CCO4)CC3)c2O1 (stereo partly drawn) [Compound 249a, 2-({4-[2-(4-chloro-2-fluorophenyl)-2-methyl-2H-1,3-benzodioxol-4-yl]piperidin-1-yl}methyl)-5-[5-(difluoromethyl)-4H-1,2,4-triazol-3-yl]-6-fluoro-1-{[(2S)-oxetan-2-yl]methyl}-1H-1,3-benzodiazole]
240 pM	CC1(c2ccc(Cl)cc2)Oc2cccc(C3=CCN(Cc4nc5cc(-c6nnc(C(F)(F)F)[nH]6)ccc5n4C[C@@H]4CCO4)CC3)c2O1 (stereo partly drawn) [Compound 255a, 2-({4-[2-(4-chlorophenyl)-2-methyl-2H-1,3-benzodioxol-4-yl]-1,2,3,6-tetrahydropyridin-1-yl}methyl)-1-{[(2S)-oxetan-2-yl]methyl}-5-[5-(trifluoromethyl)-4H-1,2,4-triazol-3-yl]-1H-1,3-benzodiazole]
3000 pM	O=C(Nc1ccc2c(c1)nc(CN1CCC(c3cccc(OCc4ccc(Cl)cc4F)n3)CC1)n2C[C@@H]1CCO1)C1CCC(F)(F)C1 (stereo partly drawn) [Compound 186a, N-{2-[(4-{6-[(4-chloro-2-fluorophenyl)methoxy]pyridin-2-yl}piperidin-1-yl)methyl]-1-{[(2S)-oxetan-2-yl]methyl}-1H-1,3-benzodiazol-5-yl}-3,3-difluorocyclopentane-1-carboxamide]
360 pM	Fc1cc(Cl)ccc1COc1cccc(C2=CCN(Cc3nc4cc(-c5nnc(C(F)(F)F)[nH]5)cnc4n3C[C@@H]3CCO3)CC2)c1 [Compound 319a, 4-{3-[(4-chloro-2-fluorophenyl)methoxy]phenyl}-1-[(3-{[(2S)-oxetan-2-yl]methyl}-6-[5-(trifluoromethyl)-4H-1,2,4-triazol-3-yl]-3H-imidazo[4,5-b]pyridin-2-yl)methyl]-1,2,3,6-tetrahydropyridine]
